Measurements published in the NIST ThermoML archive (doi:10.1016/j.jct.2008.06.017).

Experiments:
[1] = Liquid, Vibrating tube method
[2] = xn = mol fraction of the nth substance listed; conditions: Liquid, Vibrating tube method

C=C(C)C(=O)OCCCC [butyl 2-methyl-2-propenoate]
[1]
Conditions	mass density [kg/m3]
293.15 K	895.231
303.15 K	885.991
313.15 K	876.19

C=COC(C)=O [vinyl acetate] + COC(=O)OC
[2]
Conditions	mass density [kg/m3]
293.15 K, x2 = 0	931.95
293.15 K, x2 = 0.025	935.258
293.15 K, x2 = 0.0504	938.581
293.15 K, x2 = 0.1002	945.231
293.15 K, x2 = 0.1537	952.421
293.15 K, x2 = 0.1999	958.65
293.15 K, x2 = 0.25	965.315
293.15 K, x2 = 0.3001	972.123
293.15 K, x2 = 0.3498	978.865
293.15 K, x2 = 0.4002	985.701
293.15 K, x2 = 0.4503	992.611
293.15 K, x2 = 0.5	999.443
293.15 K, x2 = 0.5502	1006.39
293.15 K, x2 = 0.6001	1013.38
293.15 K, x2 = 0.6495	1020.26
293.15 K, x2 = 0.6934	1026.46
293.15 K, x2 = 0.7501	1034.48
293.15 K, x2 = 0.7971	1041.1
293.15 K, x2 = 0.8499	1048.6
293.15 K, x2 = 0.9002	1055.59
293.15 K, x2 = 0.9493	1062.61
293.15 K, x2 = 0.975	1066.22
303.15 K, x2 = 0	919.089
303.15 K, x2 = 0.025	922.4
303.15 K, x2 = 0.0501	925.708
303.15 K, x2 = 0.0999	932.33
303.15 K, x2 = 0.15	939.009
303.15 K, x2 = 0.1998	945.689
303.15 K, x2 = 0.2499	952.431
303.15 K, x2 = 0.3004	959.251
303.15 K, x2 = 0.35	965.996
303.15 K, x2 = 0.4003	972.857
303.15 K, x2 = 0.4488	979.518
303.15 K, x2 = 0.4999	986.544
303.15 K, x2 = 0.5496	993.403
303.15 K, x2 = 0.6	1000.41
303.15 K, x2 = 0.6489	1007.22
303.15 K, x2 = 0.6986	1014.13
303.15 K, x2 = 0.7494	1021.26
303.15 K, x2 = 0.8	1028.36
303.15 K, x2 = 0.8496	1035.38
303.15 K, x2 = 0.8999	1042.51
303.15 K, x2 = 0.9496	1049.56
303.15 K, x2 = 0.9753	1053.22
313.15 K, x2 = 0	906.116
313.15 K, x2 = 0.0248	909.387
313.15 K, x2 = 0.0501	912.718
313.15 K, x2 = 0.1003	919.392
313.15 K, x2 = 0.1499	925.976
313.15 K, x2 = 0.2001	932.73
313.15 K, x2 = 0.25	939.446
313.15 K, x2 = 0.2999	946.16
313.15 K, x2 = 0.3502	953.002
313.15 K, x2 = 0.3999	959.753
313.15 K, x2 = 0.45	966.575
313.15 K, x2 = 0.4996	973.402
313.15 K, x2 = 0.5501	980.351
313.15 K, x2 = 0.5998	987.189
313.15 K, x2 = 0.6502	994.195
313.15 K, x2 = 0.7	1001.12
313.15 K, x2 = 0.7501	1008.14
313.15 K, x2 = 0.7999	1015.14
313.15 K, x2 = 0.8499	1022.15
313.15 K, x2 = 0.8995	1029.12
313.15 K, x2 = 0.9501	1036.31
313.15 K, x2 = 0.9746	1039.75

C=Cc1ccccc1 [styrene] + COC(=O)OC
[2]
Conditions	mass density [kg/m3]
293.15 K, x2 = 0	906.26
293.15 K, x2 = 0.0246	909.146
293.15 K, x2 = 0.0498	912.112
293.15 K, x2 = 0.1006	918.267
293.15 K, x2 = 0.1506	924.493
293.15 K, x2 = 0.2004	930.891
293.15 K, x2 = 0.2506	937.533
293.15 K, x2 = 0.3008	944.38
293.15 K, x2 = 0.3498	951.272
293.15 K, x2 = 0.4007	958.655
293.15 K, x2 = 0.4498	966.048
293.15 K, x2 = 0.5001	973.84
293.15 K, x2 = 0.5499	981.838
293.15 K, x2 = 0.5996	990.075
293.15 K, x2 = 0.6507	998.871
293.15 K, x2 = 0.7001	1007.72
293.15 K, x2 = 0.7496	1016.93
293.15 K, x2 = 0.7997	1026.61
293.15 K, x2 = 0.8501	1036.78
293.15 K, x2 = 0.9001	1047.29
293.15 K, x2 = 0.9499	1058.27
293.15 K, x2 = 0.9747	1063.93
303.15 K, x2 = 0	897.392
303.15 K, x2 = 0.0262	900.37
303.15 K, x2 = 0.0502	903.146
303.15 K, x2 = 0.1004	909.105
303.15 K, x2 = 0.1506	915.204
303.15 K, x2 = 0.2005	921.462
303.15 K, x2 = 0.2502	927.883
303.15 K, x2 = 0.3001	934.514
303.15 K, x2 = 0.3502	941.367
303.15 K, x2 = 0.4	948.407
303.15 K, x2 = 0.45	955.705
303.15 K, x2 = 0.5003	963.262
303.15 K, x2 = 0.5498	971.001
303.15 K, x2 = 0.5998	979.074
303.15 K, x2 = 0.6497	987.452
303.15 K, x2 = 0.7007	996.305
303.15 K, x2 = 0.7502	1005.27
303.15 K, x2 = 0.8002	1014.68
303.15 K, x2 = 0.85	1024.5
303.15 K, x2 = 0.8999	1034.72
303.15 K, x2 = 0.9502	1045.5
303.15 K, x2 = 0.975	1051.05
313.15 K, x2 = 0	888.472
313.15 K, x2 = 0.0256	891.333
313.15 K, x2 = 0.0501	894.082
313.15 K, x2 = 0.0998	899.822
313.15 K, x2 = 0.1514	905.948
313.15 K, x2 = 0.2007	911.977
313.15 K, x2 = 0.2506	918.225
313.15 K, x2 = 0.3008	924.745
313.15 K, x2 = 0.3499	931.26
313.15 K, x2 = 0.4006	938.218
313.15 K, x2 = 0.4501	945.282
313.15 K, x2 = 0.5103	954.115
313.15 K, x2 = 0.5503	960.19
313.15 K, x2 = 0.5995	967.947
313.15 K, x2 = 0.6499	976.16
313.15 K, x2 = 0.6999	984.624
313.15 K, x2 = 0.7503	993.432
313.15 K, x2 = 0.8002	1002.61
313.15 K, x2 = 0.8499	1012.09
313.15 K, x2 = 0.9001	1022.04
313.15 K, x2 = 0.9497	1032.41
313.15 K, x2 = 0.975	1037.84

COC(=O)OC [dimethyl carbonate] + C=C(C)C(=O)OCCCC
[2], x1 = 1
Conditions	mass density [kg/m3]
293.15 K	1069.79
303.15 K	1056.75
313.15 K	1043.37

C=CCOC(=O)C(=C)C [2-propenyl 2-methylpropenoate]
[1]
Conditions	mass density [kg/m3]
293.15 K	932.965
303.15 K	922.525
313.15 K	912.072

C=Cc1ccccc1 [styrene]
[1]
Conditions	mass density [kg/m3]
293.15 K	906.26
303.15 K	897.392
313.15 K	888.472
